# US20220226311A1, “PROCASPASE-3 ACTIVATION AND IMMUNOTHERAPY FOR TREATMENT OF CANCER” (The Board of Trustees of the University of Illinois, priority 2019, published 2022)
# Columns and labels:
# plasma cytokines = assay: Cytokine array of plasma from mice treated with PAC-1; type: in vivo, BALB/c mice; conditions: PAC-1 x5 doses, pooled samples from 2-3 mice
# Description: FIG. 12. A) Example treatment protocol. B) Cytokine array of plasma from BALB/c mice treated with PAC-1.
# […] were centrifuged at 8000 g for 10 mins, and plasma/supt was transferred to new tubes. Cytokine array was performed on 4 groups using pooled samples from 2-3 mice:
# Signals were quantified using ImageJ. Data was normalized by calculating the ratio of PAC-1/vehicle mean pixel density as shown in the plot.
# [1] = combination with immune cytokine TRAIL, in culture; cited from earlier work
# cancer cells [2] = assay: Transcript profile of cancer cells treated with PAC-1; type: cell-based
# From the text: (§1) Increased immune cell infiltration in PAC-1 treated GL261 tumors. […] 3) PAC-1 is efficacious in in vivo settings with intact immune systems, including syngeneic mouse (EL4, K7M2, GL261) (FIG. 7) and rat (9L) models, and canine cancer patients.
# clinical = conditions: human, in vivo, 450 mg
# HT-29 cells = assay: Western blot for MLH1 and PARP-1 cleavage after PAC-1 treatment of cell lines; type: cell-based
# Description: FIG. 3. PAC-1 treatment leads to MLH1 cleavage in the absence of Apoptotic Death Markers. Cell lines were incubated with indicated concentrations of PAC-1 for 72 hours, followed by western blot analysis for MLH1 protein level, as well as PARP-1, cleaved PARP-1 (c-PARP-1 is an apoptosis maker), and beta-actin (loading control).
# Results. MSS/MSI status of colon cancer cell lines have been reported (Ahmed, D., et al., Oncogenesis 2013, 2, e71), allowing for selection of HT-29, an MSS colon cancer cell line. To date, studies that have focused on the cleavage of MLH1 have utilized strategies that broadly induce high levels of apoptotic cell death (i.e., with staurosporine). HT-29 cells were treated with sub-lethal PAC-1.
# [3] = Tolerability of PAC-1 in the human clinical trial; type: in vivo; conditions: patients taking PAC-1 for over 10 months (one at 450 mg daily)
# From the text: (§2) It should be noted that cancer drugs can induce secondary cancers, for example, almost ⅓ of patients treated with single-agent vemurafenib develop secondary malignancies; but to date this has not been observed for PAC-1. Just as PAC-1 induces PC-3 cleavage selectively in cancer cells, the resulting caspase-3 activity should lead to selective MLH1 cleavage in cancer cells. It is worth noting that Turcot syndrome, a constitutional mismatch repair deficiency (CMMRD) cancer prone syndrome, is correlated with biallelic germline mutations in MMR genes, resulting in the development of GBM at a young age. Turcot syndrome and other CMMRD syndromes (i.e. Lynch Syndrome) point to the importance of maintaining MMR protein function, implying that inducing MLH1 cleavage/loss in a non-targeted, pan-organism fashion is not a viable therapeutic strategy. However, the strategy with PAC-1 leverages the well-known overexpression of PC-3 in cancer cells (including GBM) resulting in targeted MLH1 cleavage in tumors, leaving MMR proteins in normal cells unperturbed and operating.
# CT-26_WT cells = assay: CT-26_WT subcutaneous tumor model; type: in vivo, BALB/c mice; conditions: sc CT-26_WT; PAC-1 100 mg/kg i.p., anti-PD-1 10 mg/kg, 2 or 4 doses; vs vehicle+anti-IgG
# Description: FIG. 9. Growth of CT-26_WT in BALB/c mice after 2 doses (A) versus 4 doses (B). Open circle=vehicle+anti-IgG2A antibody; square=PAC-1 (100 mg/kg)+anti-IgG2a antibody; triangle=vehicle+anti-PD-1 mAb; inverted triangle=PAC-1 (100 mg/kg)+anti-PD-1 mAb.
# FIG. 10. Analysis of treatment of BALB/c mice with PAC-1 and anti-PDL1 mAb. Open circle=vehicle+anti-IgG2A antibody; square=PAC-1 (100 mg/kg)+anti-IgG2a antibody; triangle=vehicle+anti-PD-1 mAb; inverted triangle=PAC-1 (100 mg/kg)+anti-PD-1 mAb.
# FIG. 8 illustrates the development of a CT-26_WT subcutaneous disease model in BALB/c mice. At day 0, BALB/c mice were injected subcutaneously with 1×10^6 CT-26_WT cells. At various day intervals, selected mice were injected (i.p.) with an empty vehicle, PAC-1 (100 mg/kg), anti-PD-1 antibody (10 mg/kg; 2 doses), anti-PD-1 antibody (10 mg/kg; 4 doses), or a combination of PAC-1 (100 mg/kg) and anti-PD-1 antibody (10 mg/kg;) as shown in Table 1.
# PMBCs = conditions: cited from earlier work
# [4] = Secondary malignancies in pet dogs with cancer treated with PAC-1; type: in vivo; conditions: pet dogs treated >6 months, >12 months after completion of therapy
# From the text: as §2
# [5] = system: lung tumor microenvironment; assay: Immune cell populations in lungs, PBMC and spleen after tumor challenge; type: in vivo, BALB/c mice
# From the text: FIG. 13. Analysis of neutrophil and macrophage populations after treatment with PAC-1 14 days post-tumor challenge in lungs, PBMC, and spleen. Open circle=vehicle+anti-IgG2A antibody; square=PAC-1+anti-IgG2a antibody; triangle=vehicle+anti-PD-1 mAb; inverted triangle=PAC-1+anti-PD-1 mAb.
# FIG. 14. Analysis of T-cells, B-cells, and NK cell populations in the lungs, PBMC, and spleen of BALB/c mice 26 days post combinatorial PAC-1 and anti-PD-1 treatment. Open circle=vehicle+anti-IgG2A antibody; square=PAC-1+anti-IgG2a antibody; triangle=vehicle+anti-PD-1 mAb; inverted triangle=PAC-1+anti-PD-1 mAb.
# FIG. 15. PD-L1 expression on the surface of dendritic cells and CD45^− tumor cells 26 days post-tumor challenge in lungs, PBMC, and spleen of BALB/c mice. Open circle=vehicle+anti-IgG2A antibody; square=PAC-1+anti-IgG2a antibody; triangle=vehicle+anti-PD-1 mAb; inverted triangle=PAC-1+anti-PD-1 mAb.
# GL261 neurospheres = assay: Tumor infiltrating lymphocytes (CD3 staining) in orthotopic GL261 syngeneic model; type: in vivo, C57BL/6 mice; conditions: single-agent PAC-1 100 mg/kg PO x 10 days
# Description: (§3) FIG. 4. PAC-1 treatment of mice with syngeneic tumors increases the numbers of tumor infiltrating lymphocytes. A) C57BL/6 mice with orthotopic transplant of GL261 neurospheres. Tumors were allowed to establish for 10 days, then mice (n=3/group) were treated with or without PAC-1 (100 mg/kg PO×10 days), then sacrificed. Tumors were stained for CD3 (brown) to identify T cell TILs. Data presented as average CD3^+ per 4 HPF/mouse. Magnification 100×. B) C57BL/6 mice with subcutaneous transplant of B16F10 cells. Tumors were allowed to establish for 7 days, then mice (n=8/group) were treated with or without PAC-1 (100 mg/kg IP×2×14 days), then sacrificed. Tumors were stained for CD3 (brown) to identify T cell TILs. Data presented as average CD3^+ per 10 HPF/mouse. Magnification 100×.
# B16F10 cells = assay: Tumor infiltrating lymphocytes (CD3 staining) in subcutaneous B16F10 syngeneic model; type: in vivo, C57BL/6 mice; conditions: single-agent PAC-1 100 mg/kg IP x2 x14 days
# Description: as §3
# [6] = Myelosuppression in animals and humans, including IND-enabling rat and dog studies; type: in vivo, mice, rats, dogs, or humans; conditions: also at very high doses in IND-enabling rat and dog studies
# From the text: as §1
# cancer cells [7] = assay: DNA damage in cancer cells; type: cell-based
# From the text: as §1
# [8] = single-agent treatment; cited from earlier work
# [9] = HT-29 cells, sub-lethal PAC-1, 72 hours
Structure (SMILES),Plasma cytokines (ratio PAC-1/vehicle mean pixel density) (plasma cytokines),Extrinsic cell death [1],Markers associated with resistance to anti-PD-1 therapy (IPRES) (cancer cells [2]),Upregulated genes in transcript profile (cancer cells [2]),Cmax (clinical) [µM],"Selectivity of MLH1 cleavage, cancer cell lines vs normal cell line HFF-1 (HT-29 cells; 72 hours)",PARP-1 cleavage (apoptosis marker) (HT-29 cells; [9]),PC-3 activation and MLH1 cleavage (HT-29 cells; [9]),Ill effects on prolonged dosing [3],Tumor growth (CT-26_WT cells),Toxicity to PBMCs (PMBCs),Secondary malignancies [4],Neutrophils and macrophages in lung tumor microenvironment ([5]; day 14 post-tumor challenge),Macrophages and dendritic cells in tumor microenvironment ([5]; day 26),Number of TILs (CD3+ cells) (GL261 neurospheres),Number of TILs (CD3+ cells) (B16F10 cells),Myelosuppression [6],DNA damage (cancer cells [7]),Fraction of patients developing secondary malignancies [8]
C=CCc1cccc(/C=N/NC(=O)CN2CCN(Cc3ccccc3)CC2)c1O [PAC-1],increase in cytokines that promote macrophage differentiation as well as B-cell and T-cell proliferation,can enhance extrinsic cell death in culture,no upregulation,"upregulation of key genes including TNFα, innate immune system agonists IL-1β and IL-8",7.8,cancer cell specific MLH1 cleavage,little to no PARP-1 cleavage,induced PC-3 activation and MLH1 cleavage,no ill effects,large variation in controlling sc CT-26_WT growth,minimal toxicity to PMBCs,remain free of secondary malignancies,appear to increase,have decreased,increased the number of TILs,increased the number of TILs,has not been observed to induce myelosuppression,causes DNA damage selectively in cancer cells,
CCCS(=O)(=O)Nc1ccc(F)c(C(=O)c2c[nH]c3ncc(-c4ccc(Cl)cc4)cc23)c1F [vemurafenib],,,,,,,,,,,,,,,,,,,⅓
